The source of these data is US20210269434A1, “TRICYCLIC COMPOUNDS AS INHIBITORS OF KRAS” (Incyte Corporation, priority 2020, published 2021).

One assay concerns the target KRAS G12C (Homo sapiens, UniProt P01116, G12C). In words: GDP-GTP exchange assay (KRAS_G12C exchange). Type of assay: biochemical. As to conditions: bodipy-GDP loaded KRAS G12C 2.5 nM, SOS1 150 nM, GppNHp; 2 hours pre-incubation, 2 hours reaction; read-out: G12C_exchange. The procedure:
Example A. GDP-GTP Exchange Assay
The inhibitor potency of the exemplified compounds was determined in a fluorescence based guanine nucleotide exchange assay, which measures the exchange of bodipy-GDP (fluorescently labeled GDP) for GppNHp (Non-hydrolyzable GTP analog) to generate the active state of KRAS in the presence of SOS1 (guanine nucleotide exchange factor). Inhibitors were serially diluted in DMSO and a volume of 0.1 μL was transferred to the wells of a black low volume 384-well plate. 5 μL/well volume of bodipy-loaded KRAS G12C diluted to 5 nM in assay buffer (25 mM Hepes pH 7.5, 50 mM NaCl, 10 mM MgCl2 and 0.01% Brij-35) was added to the plate and pre-incubated with inhibitor for 2 hours at ambient temperature. Appropriate controls (enzyme with no inhibitor or with a G12C inhibitor (AMG-510)) were included on the plate. The exchange was initiated by the addition of a 5 μL/well volume containing 1 mM GppNHp and 300 nM SOS1 in assay buffer. The 10 μL/well reaction concentration of the bodipy-loaded KRAS G12C, GppNHp, and SOS1 were 2.5 nM, 500 uM, and 150 nM, respectively. The reaction plates were incubated at ambient temperature for 2 hours, a time estimated for complete GDP-GTP exchange in the absence of inhibitor. For the KRAS G12D and G12V mutants, similar guanine nucleotide exchange assays were used with 2.5 nM as final concentration for the bodipy loaded KRAS proteins and with 4 hours and 3 hours incubation after adding GppNHp-SOS1 mixture for G12D and G12V respectively. A cyclic peptide described to selectively bind G12D mutant (Sakamoto et al., BBRC 484.3 (2017), 605-611) or internal compounds with confirmed binding were used as positive controls in the assay plates. Fluorescence intensities were measured on a PheraStar plate reader instrument (BMG Labtech) with excitation at 485 nm and emission at 520 nm.
Either GraphPad prism or XLfit was used to analyze the data. The IC50 values were derived by fitting the data to a four parameter logistic equation producing a sigmoidal dose-response curve with a variable Hill coefficient. Prism equation: Y=Bottom+(Top−Bottom)/(1+10^((Log lC50−X)*Hill slope)); XLfit equation: Y=(A+((B−A)/(1+((X/C)^D)))) where X is the logarithm of inhibitor concentration and Y is the response.

The subject of assay [1] is MIA PaCa-2 (KRAS G12C) cells. In words: Cellular pERK HTRF assay (KRAS_G12C pERK). As to conditions: Homo sapiens, MIA PaCa-2, 4 hours incubation, read-out: G12C_pERK. Type of assay: cell-based, human. The protocol: Example C: Cellular pERK HTRF Assay
MIA PaCa-2 (KRAS G12C; ATCC® CRL-1420), A427 (KRAS G12D; ATCC® HTB53), HPAF-II (KRAS G12D; ATCC® CRL-1997) and NCI-H838 (KRAS WT; ATCC® CRL-5844) cells are purchased from ATCC and maintained in RPMI 1640 media supplemented with 10% FBS (Gibco/Life Technologies). The cells are plated at 5000 cells per well (8 uL) into Greiner 384-well low volume, flat-bottom, tissue culture treated white plates and incubated overnight at 37° C., 5% CO2. The next morning, test compound stock solutions are diluted in media at 3× the final concentration, and 4 uL are added to the cells. The plate is mixed by gentle rotation for 30 seconds (250 rpm) at room temperature. The cells are incubated with the KRAS G12C and G12D compounds for 4 hours or 2 hours respectively at 37° C., 5% CO2.
4 uL of 4× lysis buffer with blocking reagent (1:25) (Cisbio) are added to each well and plates are rotated gently (300 rpm) for 30 minutes at room temperature. 4 uL per well of Cisbio anti Phospho-ERK 1/2 d2 is mixed with anti Phospho-ERK 1/2 Cryptate (1:1) are added to each well, mixed by rotation and incubated overnight in the dark at room temperature. Plates are read on the Pherastar plate reader at 665 nm and 620 nm wavelengths. IC50 determination is performed by fitting the curve of inhibitor percent inhibition versus the log of the inhibitor concentration using the GraphPad Prism 7 software.
For orientation: TR-FRET usually uses a lanthanide donor and a delayed reading to cut background.

Chain of KRAS G12C (P01116 1-188 isoform P01116-2 G12C): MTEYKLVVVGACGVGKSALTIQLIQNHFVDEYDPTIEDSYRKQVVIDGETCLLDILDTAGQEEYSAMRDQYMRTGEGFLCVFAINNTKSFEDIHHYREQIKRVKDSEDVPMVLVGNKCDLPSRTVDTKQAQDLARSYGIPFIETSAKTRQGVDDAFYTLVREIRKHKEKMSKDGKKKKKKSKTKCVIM

Consider `C=CC(=O)N1CC[C@H](n2cnc3c(N4CC(N(C)C)C4)nc4c(F)c(-c5cccc6cnccc56)c(Cl)cc4c32)C[C@H]1CC#N` (single isomer, unassigned) [Example 70a], for which the IC50 (on KRAS G12C; in assay [1]) was at most 100 nM each time.
As to `C=CC(=O)N1CC[C@H](n2cnc3c(N4CC(N(C)C)C4)nc4c(F)c(-c5cccc(Cl)c5C)c(Cl)cc4c32)C[C@H]1CC#N` [Example 61, 2-((2S,4S)-1-acryloyl-4-(8-chloro-7-(3-chloro-2-methylphenyl)-4-(3-(dimethyl-amino)azetidin-1-yl)-6-fluoro-1H-imidazo[4,5-c]quinolin-1-yl)piperidin-2-yl)acetonitrile], the IC50 (on KRAS G12C; in assay [1]) was at most 100 nM throughout.
On to `CC#CC(=O)N1CC[C@H](n2nnc3c(N4CC(N(C)C)C4)nc4c(F)c(-c5c(C)c(Cl)cc6[nH]ncc56)c(CCC#N)cc4c32)C[C@H]1CC#N` (single isomer, unassigned) [Example 231a], for which the IC50 (at KRAS G12C; in assay [1]) was at most 100 nM throughout.
For `Cc1cccc(-c2c(C)cc3c(nc(-n4ccnc4C)c4nnn([C@H]5CCN(C(=O)/C=C/CN(C)C)[C@H](CC#N)C5)c43)c2F)c1Cl` [Example 252, 2-((2S,4S)-4-(7-(2-chloro-3-methylphenyl)-6-fluoro-8-methyl-4-(2-methyl-1H-imidazol-1-yl)-1H-[1,2,3]triazolo[4,5-c]quinolin-1-yl)-1-((E)-4-(dimethylamino)but-2-enoyl)piperidin-2-yl)acetonitrile], the IC50 (on KRAS G12C; in assay [1]) was at most 100 nM throughout.
For the compound `Cc1cccc(-c2c(C)cc3c(nc(N4CC(C)(N(C)C)C4)c4nnn([C@H]5CCN(C(=O)/C=C/CN(C)C)[C@H](CC#N)C5)c43)c2F)c1Cl` [Example 257, 2-((2S,4S)-4-(7-(2-chloro-3-methylphenyl)-4-(3-(dimethylamino)-3-methylazetidin-1-yl)-6-fluoro-8-methyl-1H-[1,2,3]triazolo[4,5-c]quinolin-1-yl)-1-((E)-4-(dimethylamino)but-2-enoyl)piperidin-2-yl)acetonitrile], the IC50 (at KRAS G12C; in assay [1]) was at most 100 nM each time.
Take `C=CC(=O)N1CC[C@H](n2nnc3c(N4CC(N(C)C)C4)nc4c(F)c(-c5cccc(C#N)c5C)c(Cl)cc4c32)C[C@H]1CC#N` [Example 115, 3-(1-((2S,4S)-1-acryloyl-2-(cyanomethyl)piperidin-4-yl)-8-chloro-4-(3-(dimethylamino)azetidin-1-yl)-6-fluoro-1H-[1,2,3]triazolo[4,5-c]quinolin-7-yl)-2-methylbenzonitrile]: the IC50 (on KRAS G12C; in assay [1]) was at most 100 nM in each case.
Regarding `COC/C=C/C(=O)N1CC[C@H](n2nnc3c(OC[C@@H]4CCCN4C)nc4c(F)c(-c5ccccc5C(F)(F)F)c(C)cc4c32)C[C@H]1CC#N` (single isomer, unassigned) [Example 157a], the IC50 (at KRAS G12C; in assay [1]) was at most 100 nM in each case.
On to `Cc1c(Cl)cc2[nH]ncc2c1-c1c(Cl)cc2c(nc(N3CC(N(C)C)C3)c3nnn([C@H]4CCN(C(=O)/C=C/C(F)F)[C@H](CC#N)C4)c32)c1F` [Example 201a, 2-((2S,4S)-4-(8-chloro-7-(6-chloro-5-methyl-1H-indazol-4-yl)-4-(3-(dimethylamino)azetidin-1-yl)-6-fluoro-1H-[1,2,3]triazolo[4,5-c]quinolin-1-yl)-1-((E)-4,4-difluorobut-2-enoyl)piperidin-2-yl)acetonitrile], for which the IC50 (at KRAS G12C; in assay [1]) was at most 100 nM each time.
As to `C=CC(=O)N1CCC(n2cnc3c(OC[C@@H]4CCCN4C)nc4c(F)c(-c5cc(O)cc6ccccc56)c(Cl)cc4c32)CC1CC#N` (single isomer, unassigned) [Example 36a], the IC50 (on KRAS G12C; in assay [1]) was at most 100 nM each time.
In the case of `C=CC(=O)N1CC[C@H](n2nnc3c(N4CC(N(C)C)C4)nc4c(Cl)c(-c5cccc(Cl)c5Cl)c(Cl)cc4c32)C[C@H]1CC#N` [Example 281, 2-((2S,4S)-1-acryloyl-4-(6,8-dichloro-7-(2,3-dichlorophenyl)-4-(3-(dimethylamino)azetidin-1-yl)-1H-[1,2,3]triazolo[4,5-c]quinolin-1-yl)piperidin-2-yl)acetonitrile], the IC50 (on KRAS G12C; in assay [1]) was at most 100 nM in each case.
Take `C=CC(=O)N1CC(n2c(=O)n(C[C@@H]3CCCN3C)c3c(=O)n(-c4c(C)ccnc4C(C)C)c4nc(-c5cc(O)cc6ccccc56)c(F)cc4c32)C1` [Example 27, (S)-1-(1-acryloylazetidin-3-yl)-8-fluoro-7-(3-hydroxynaphthalen-1-yl)-5-(2-isopropyl-4-methylpyridin-3-yl)-3-((1-methylpyrrolidin-2-yl)methyl)-3,5-dihydro-1H-imidazo[4,5-c][1,8]naphthyridine-2,4-dione]: the IC50 lay in the range of 100 to 1000 nM on KRAS G12C and 1000 to 5000 nM in assay [1].
Turning to `C=CC(=O)N1CC[C@H](n2cnc3c(N4CC(N(C)C)C4)nc4c(F)c(-c5ccc(F)c6cccnc56)c(Cl)cc4c32)C[C@H]1CC#N` (single isomer, unassigned) [Example 64a], the IC50 (at KRAS G12C; in assay [1]) was at most 100 nM each time.
With `C=CC(=O)N1CC[C@H](n2cnc3c(N4CC(N(C)C)C4)nc4c(F)c(-c5cc(C)ccc5C)c(Cl)cc4c32)C[C@H]1CC#N` [Example 60, 2-((2S,4S)-1-acryloyl-4-(8-chloro-4-(3-(dimethylamino)azetidin-1-yl)-7-(2,5-dimethylphenyl)-6-fluoro-1H-imidazo[4,5-c]quinolin-1-yl)piperidin-2-yl)acetonitrile], the IC50 (at KRAS G12C; in assay [1]) was at most 100 nM each time.
As for `C=CC(=O)N1CC[C@H](n2nnc3c(N4CC(N(C)C)C4)nc4c(F)c(-c5cccc(C)c5)c(Cl)cc4c32)C[C@H]1CC#N` [Example 114, 2-((2S,4S)-1-acryloyl-4-(8-chloro-4-(3-(dimethylamino)azetidin-1-yl)-6-fluoro-7-(m-tolyl)-1H-[1,2,3]triazolo[4,5-c]quinolin-1-yl)piperidin-2-yl)acetonitrile], the IC50 (at KRAS G12C; in assay [1]) was at most 100 nM each time.
Regarding `Cc1cccc(-c2c(C)cc3c(nc(OC[C@@H]4CCCN4C)c4nnn([C@H]5CCN(C(=O)/C=C/C(F)F)[C@H](CC#N)C5)c43)c2F)c1C` [Example 141, 2-((2S,4S)-1-((E)-4,4-difluorobut-2-enoyl)-4-(7-(2,3-dimethylphenyl)-6-fluoro-8-methyl-4-(((S)-1-methylpyrrolidin-2-yl)methoxy)-1H-[1,2,3]triazolo[4,5-c]quinolin-1-yl)piperidin-2-yl)acetonitrile], the IC50 (at KRAS G12C; in assay [1]) was at most 100 nM throughout.
With `Cc1cccc(-c2c(C)cc3c(nc(OC[C@@H]4CCCN4C)c4nnn([C@H]5CCN(C(=O)/C=C/CF)[C@H](CC#N)C5)c43)c2F)c1Cl` [Example 253, 2-((2S,4S)-4-(7-(2-chloro-3-methylphenyl)-6-fluoro-8-methyl-4-(((S)-1-methylpyrrolidin-2-yl)methoxy)-1H-[1,2,3]triazolo[4,5-c]quinolin-1-yl)-1-((E)-4-fluorobut-2-enoyl)piperidin-2-yl)acetonitrile], the IC50 (at KRAS G12C; in assay [1]) was at most 100 nM each time.
